Reference: ChEMBL document CHEMBL4420075, “Seriniquinones, melanoma-specific anticancer agents” (2016)
pIC50: −log10 of the molar value. Activity calls are given as the source filed them. The rule behind the calls is not given here.

Key:
HCT-116 = assay: Cytotoxicity in human HCT116 cells by MTT assay; format: functional, cell-based
Dermcidin (Homo sapiens) = biological target: T1, Dermcidin (Homo sapiens) (UniProt P81605); assay: Covalent binding affinity to DCD-1L (unknown origin) at 50 uM incubated for 24 hrs by denatured SDS-PAGE gel electrophoresis
T1 sequence (whole entry): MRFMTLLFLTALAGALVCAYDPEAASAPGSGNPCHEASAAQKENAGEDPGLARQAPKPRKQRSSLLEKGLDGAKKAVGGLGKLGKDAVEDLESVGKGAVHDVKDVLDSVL

`O=c1c2ccc(O)cc2c(=O)c2c1sc1c(=O)c3ccc(O)cc3c(=O)c12` showed a pIC50 (HCT-116) of 5.80.

`CC(C)=CCCc1ccc2c(=O)c3c(sc4c(=O)c5ccccc5c(=O)c43)c(=O)c2c1` was tested, and the Activity (Dermcidin (Homo sapiens)) was “Active”.
